Test results as given in patent US20250198977A1, “DETECTION METHOD, DRIED ALGAE MANUFACTURING METHOD, DRIED ALGAE, AND DRIED ALGAE QUALITY MANAGEMENT METHOD” (priority 2022, published 2025).

What was measured:
[1] = tested on: L-dried matter of Cyanobium sp. NIES-981; assay: Detection of chemical substances by delayed luminescence (DFI) of rehydrated L-dried matter; type: cell-based
Description: (§1) Various kinds of the L-dried matter obtained in the above-described cryo vial, and test water (water containing the chemical substances listed below at the concentrations (w/v) shown in Table 7) were prepared.
(§2) (metal mixed solution which was prepared by simulation based on formulation of a rock eluate from a core sample collected during a survey voyage of “Chikyu” by the Japan Agency for Marine-Earth Science and Technology; mainly containing lead and zinc (Yamagishi et al. Ecotoxicology (2018) 27:1303-1309)) • Copper • Zinc • Lead • Arsenic: in NIES-35, NIES-969, and NIES-2885, test water containing As(V) at 1 ppm (w/v) was also used for examination.
(§3) In a case of tests using freshwater algae, distilled water was used as the test water or control water, and in a case of tests using marine algae, filtered and sterilized seawater was used as the test water or control water.
(§4) Using a cuvette as a measurement container, 100 μL of the above-described cell suspension was dried to obtain 1 unit of the L-dried matter, and resuspended (rehydrated) in 3.5 mL of test water or control water.
(§5) After the rehydration, the L-dried matter and the test water or control water were rapidly and thoroughly mixed by pipetting to obtain a measurement sample (measurement object).
(§6) The sample was set in a weak luminescence measurement device (manufactured by Hamamatsu Photonics K.K., weak luminescence coefficient device, Type-7100). After exposure with excitation light from a light source attached to the device, delayed luminescence was measured immediately after a point of time of the rehydration (within 30 seconds), 15 minutes later, 30 minutes later, 60 minutes later, and 90 minutes later. The measurement time for each delayed luminescence was set to 10 seconds.
(§7) The sum of amounts of delayed luminescence (photon count) measured over 10 seconds was calculated and defined as the delayed fluorescence integral (DFI). In addition, for the sample after the rehydration, an absorbance at a wavelength of 600 nm with an optical path length of 1 cm was simultaneously measured. The DFI value per cell number of the L-dried matter was obtained by dividing the DFI by the value (DFI/OD600).

[2] = tested on: L-dried matter of Synechococcus sp. NIES-969; assay: as above; type: cell-based
Description: as §1, §2, §3, §4, §5, §6, §7

[3] = tested on: L-dried matter of Raphidocelis subcapitata NIES-35; assay: as above; type: cell-based
Description: as §1, §2, §3, §4, §5, §6, §7

[4] = tested on: L-dried matter of Prochlorococcus sp. NIES-2885; assay: as above; type: cell-based
Description: as §1, §2, §3, §4, §5, §6, §7

[5] = tested on: L-dried matter of NIES-981; assay: Estimation of half-effective concentration (EC50) from delayed luminescence dose-response curve; type: cell-based, Cyanobium sp.; conditions: exposed simultaneously with rehydration; delayed luminescence after 15 minutes
Description: A dose-response curve of the L-dried matter with respect to a representative metal was created, and a half-effective concentration (EC50) was estimated. For the L-dried matter of NIES-981, zinc at 0 to 1 ppm (w/v) or Cy metal mixed solution at 0 to 10% (w/v) was exposed simultaneously with rehydration. After 15 minutes, the delayed luminescence was measured, and a dose-response curve was created.

[6] = tested on: same type of biocyanobacteria; assay: 24-hour exposure test on the same type of cyanobacteria; type: cell-based; conditions: different bioassay method
Description: In a case where the half-effective concentration (EC50) was calculated, the zinc was 0.05 ppm (w/v) (FIG. 11) and the Cy metal mixed solution was 0.7% (w/v) (FIG. 12). Although it is not possible to simply compare the values because the values were obtained by different bioassay methods, the EC50 value during the zinc exposure was 0.07 ppm in a case where the 24-hour exposure test was performed on the same type of biocyanobacteria, and the EC50 value was similar to this value.

[7] = tested on: L-dried matter of NIES-35; assay: Detectable concentration by significant difference test, 15 min exposure of L-dried matter; type: cell-based, Raphidocelis subcapitata; conditions: exposed for 15 minutes
Source text: The concentration of HA corresponds to a 100 million-fold dilution of a commercially available stock solution.

[8] = tested on: L-dried matter of NIES-35; assay: Detection test for ammonia nitrogen using L-dried matter; type: cell-based, Raphidocelis subcapitata; conditions: 60 minutes after addition; T-test, P<0.05, N=3
Description: To the L-dried matter of NIES-35 obtained in the cryo vial, a sample containing ammonia nitrogen at a concentration shown in FIG. 10 was added, and the delayed luminescence was measured 60 minutes after the addition.

[9] = tested on: L-dried matter of NIES-35; assay: Quality evaluation of stored L-dried matter with DCMU; type: cell-based, Raphidocelis subcapitata; conditions: DCMU 1 μM, after 15 minutes
Description: The L-dried matter stored at 4° C. for 2 weeks was compared with the L-dried matter stored at 37° C. for 2 weeks (accelerated deterioration product). In each case, DCMU was added to the L-dried matter of NIES-35 at the same time as the rehydration, such that the final concentration was 1 μM (DCMU addition group), and the delayed luminescence after 15 minutes was measured. In addition, the delayed luminescence was measured in the control (non-addition group) in which DCMU was not added, following the same procedure.

[10] = tested on: L-dried matter of NIES-981 on filter; assay: Detection test for DCMU using L-dried matter on a filter; type: cell-based, Cyanobium sp.; conditions: DCMU 1 μM; 5 minutes after exposure; *P<0.01, N=4
Description: 25 to 50 mL of a culture solution of NIES-981 was passed through a filter (Whatman GF/F glass fiber filter paper (diameter: 47 mm)) set in a filtration unit, capturing the cells on the filter. After the filtration, 1 mL of a protective medium (Table 6) was immediately added dropwise onto the filter. The filter on which the cells were captured was subjected to low-temperature vacuum drying for 1 to 2 hours using a low-temperature vacuum drying device (manufactured by Forest Technology Systems Ltd., FLEXI-DRY) capable of performing L-drying. Subsequent steps were performed in the same manner as in the preparation of the L-dried sample in the vial described above, thereby obtaining L-dried matter of algae on the filter (FIG. 8).
The L-dried matter obtained on the filter was exposed to seawater or test water containing DCMU at a concentration of 1 μM, and the delayed luminescence was measured 5 minutes after the exposure.

[11] = Zn^2+ 0.5 ppm, first value → later value
[12] = Pb^2+ 1 ppm, first value → later value

[Zn+2] [Zn^2+, Zinc]
comparison with control group (DFI value) ([1]; Zn^2+ 0.5 ppm): higher
comparison with control group (DFI value) ([1]; Zn^2+ 1 ppm): higher
comparison with control group (DFI value) [2, 11]: lower
comparison with control group (DFI value) ([2]; Zn^2+ 1 ppm): lower
comparison with control group (DFI value) ([3]; Zn^2+ 0.5 ppm): higher
comparison with control group (DFI value) ([3]; Zn^2+ 1 ppm): higher
comparison with control group (DFI value) [4, 11]: lower
comparison with control group (DFI value) ([4]; Zn^2+ 1 ppm, first value → later value): lower
half-effective concentration (EC50) [5]: 0.05 ppm (w/v)
EC50 value during the zinc exposure [6]: 0.07 ppm

[Pb+2] [Pb^2+, Lead]
comparison with control group (DFI value) ([1]; Pb^2+ 1 ppm): higher
comparison with control group (DFI value) [2, 12]: lower
comparison with control group (DFI value) ([3]; Pb^2+ 1 ppm): higher
comparison with control group (DFI value) [4, 12]: lower

NO [HA, Hydroxylamine, reference compound]
comparison with control group (DFI value) ([1]; HA 50 μM): lower
comparison with control group (DFI value) ([2]; HA 50 μM): lower
comparison with control group (DFI value) ([3]; HA 50 μM): lower
comparison with control group (DFI value) ([4]; HA 50 μM): lower
detectable concentration (significant difference test) [7]: ≤ 0.0005 µM

[Cu+2] [Cu^2+, Copper]
comparison with control group (DFI value) ([1]; Cu^2+ 1 ppm): higher
comparison with control group (DFI value) ([2]; Cu^2+ 1 ppm): lower
comparison with control group (DFI value) ([3]; Cu^2+ 1 ppm): lower
comparison with control group (DFI value) ([4]; Cu^2+ 1 ppm): lower

ammonia nitrogen [NH4—N]
concentration at which a significant difference in the amount of delayed luminescence was confirmed [8]: ≥ 10 mg/L

CN(C)C(=O)Nc1ccc(Cl)c(Cl)c1 [DCMU, 3-(3,4-dichlorophenyl)-1,1-dimethylurea, reference compound]
delayed luminescence, DCMU-added group versus non-addition group ([9]; L-dried matter stored at 4° C. for 2 weeks): a difference was observed
delayed luminescence, DCMU-added group versus non-addition group ([9]; L-dried matter stored at 37° C. for 2 weeks): no significant difference was observed
amount of delayed luminescence, DCMU versus seawater [10]: significant difference
comparison with control group (DFI value) ([1]; DCMU 1 μM): higher
comparison with control group (DFI value) ([2]; DCMU 1 μM): higher
comparison with control group (DFI value) ([3]; DCMU 1 μM): higher
comparison with control group (DFI value) ([4]; DCMU 1 μM, first value → later value): higher
detectable concentration (significant difference test) [7]: ≤ 0.1 µM
detectable concentration (significant difference test) ([7]; conversion of 0.1 μM): approximately 0.02 ppm
